For data set [1], the target named is T1, RORγ LBD (Homo sapiens, UniProt P51449).
T1 construct: RORγ LBD was diluted with the complete buffer D to a concentration of 1 ng/μL; GST; purchased AB Vector
T1 sequence (P51449 269-508 limits assumed): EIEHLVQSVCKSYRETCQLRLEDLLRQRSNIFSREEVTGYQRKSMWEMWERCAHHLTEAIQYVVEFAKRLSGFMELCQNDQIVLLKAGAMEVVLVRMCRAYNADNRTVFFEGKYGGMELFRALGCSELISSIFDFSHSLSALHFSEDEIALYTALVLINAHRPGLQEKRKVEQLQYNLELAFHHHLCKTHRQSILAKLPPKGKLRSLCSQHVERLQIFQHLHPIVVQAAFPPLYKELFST
In words: LanthaScreen TR-FRET RORγ co-activation system, effect on in vitro activity of RORγ. Format: biochemical. As to conditions: for EC50: TR-FRET RORγ co-activation, for agonist the value refers to EC50, read-out: EC50/IC50 a (nM): EC50 (agonist); for Type: agonist or inverse agonist of RORγ; for Emax: for agonist the value refers to Emax(%), read-out: Emax(%)/maximum inhibition rate b: Emax(%) (agonist). The protocol:
1. LanthaScreen® TR-FRET RORγ co-activation system (Life Technologies)
A complete buffer D (complete TR-FRET Coregulator) (Life Technologies) was formulated first, containing a final concentration of 5 mM DTT. The final concentration of DMSO was 2%. The test compound was serially diluted to 2× final concentration in the complete buffer D containing 2% of DMSO, and the maximum dose was […]. The test compound was added to the test wells of a 384-well plate (PerkinElmer) in 10 μl/well. Two parallel control wells were set up for each test compound at the same concentration. 4×RORγ LBD (AB Vector) was formulated. RORγ LBD was diluted with the complete buffer D to a concentration of 1 ng/μL, and added to the test wells of 384-well plate in 5 μl/well. The negative control well was 5 μL of complete buffer D without RORγ LBD. A mixed solution comprising 0.6 μM of fluorescein-D22 (4×) and 8 nM of terbium(Tb)-labeled anti-GST antibody (4×) (Life Technologies) was formulated with the complete buffer D, and 5 μL of the mixed solution was added to the 384-well plate. The total reaction system was 20 μL. The 384-well plate was gently shaken on a shaker, and incubated at room temperature in the dark for 2-4 hours.
Fluorescence readings were determined with Tecan Infinite M1000. The logarithmic curve of the ratio of the emission wavelength of 520 nm/495 nm to the concentration of the compound was plotted by GraphPad Prism 6.0 software. EC50/IC50 value of the test compound was calculated.
In general terms: TR-FRET usually uses a lanthanide donor and a delayed reading to cut background.

In data set [2] the test system is IL-17A. The data set can be described thus: IL-17A enzyme-linked immune quantitative assay in cytostim-activated human PBMC. The note with it: 72 h; IL-17A in supernatant of human PBMC, 3 days after drug treatment. Format: cell-based. The procedure:
1. Human peripheral blood mononuclear cells (PBMC) (Zenbio)
5. Human IL-17 enzyme-linked immunosorbent kit (R&D System)
Frozen human peripheral blood mononuclear cells (PBMC) were rapidly resuscitated in pre-warmed lymphocyte culture medium, and centrifuged at 1000 rpm for 10 min. The cell culture supernatant was removed. The cells were gently suspended in TexMACS medium and counted. The T cell activation reagent cytostim (10 μl/ml) was added in proportion to the cell suspension. Then, the cells were seeded in a 96-well cell culture plate at a density of 1×10^5 peripheral blood mononuclear cells/well. The test compounds were diluted in gradient with TexMACS medium, and added respectively to the test wells, with 2-3 parallel wells per group. A negative control well containing only cells without cytostim was provided to obtain the background reading. The cell culture plate was placed in a incubator at 5% carbon dioxide, 37° C. to incubate for 3 days. The cell culture supernatant was collected 3 days after drug treatment, and centrifuged to remove the suspension. Then, IL-17A in the supernatant was quantified with IL-17A enzyme-linked immunosorbent kit. EC50 values of the test compounds were calculated with GraphPad Prism 6.0.

Data set [3] is described as follows: Pharmacokinetics assay in mice after intragastrical administration. It is filed as in vivo. As to conditions: female, C57, mouse, plasma, po, 2 mg/kg. The protocol: Mice were used as test animals. The drug concentration in plasma at different time points was determined by LC/MS/MS method after intragastrical administration of the compound of Example 4 to mice. The pharmacokinetic behavior of the compound of the present invention was studied and evaluated in mice. A group of nine C57 mice (female) were purchased from Shanghai Jiesijie Laboratory Animal Co., LTD, with Certificate No.: SCXK (Shanghai) 2013-0006. A certain amount of the test compound was weighed, and added with 5% by volume of DMSO, 5% by volume of tween 80 and 90% by volume of normal saline to prepare a 0.1 mg/mL colorless, clear and transparent solution. […] The samples were stored in heparinized tubes, and centrifuged for 10 minutes at 3500 rpm to separate the blood plasma. The plasma samples were stored at −20° C. The content of the test compound in the plasma of mice after intragastrical administration of the test compound at different concentrations was determined: 25 μL of mouse plasma at each time after administration was taken, added with 80 μL of the internal standard solution of camptothecin (100 ng/mL) and 200 μL of acetonitrile, vortex-mixed for 5 minutes, and centrifuged for 10 minutes (3600 rpm). 1 μL of the supernatant was taken from the plasma samples for LC/MS/MS analysis.

Data set [4] concerns MC38 colorectal tumor. The data set can be described thus: Efficacy in isotype MC38 colorectal tumor mice model. Format: in vivo, C57BL/6 mice. The protocol: The inhibition effect of the compound of Example 4 on MC38 tumor growth was evaluated in MC38 mice model.
Experimental female C57BL/6 mice were purchased from Charles River Lab (U.S.A.). The mice weighed 20-25 gram, and were 7-9 weeks old when purchased. The mice (10 mice per cage) were maintained in a constant temperature of 23+1° C., and a humidity of 50-60%, and free access to food and water. The mice were treated and used in accordance with the Institutional Animal Care and Use Committee (IACUC approved guidelines). After the animals were purchased, the test was started after 7 days of adaptive feeding.
Female C57BL/6 mice (20-25 gram, 7-9 weeks old) were used in the experiment. In vivo antitumor activity of the compound of Example 4 administered alone or the compound of Example 4 administered in combination with anti-mouse PD-1 antibody was evaluated by detecting the growth of isotype MC38 colorectal tumor (Synta Pharmaceuticals) in inbred C57BL/6 mice. 500,000 (5×10^5) MC38 cells were implanted subcutaneously in the right abdomen of each mouse. After 5 days, when the tumor grew to 40-80 mm^3, the mice were grouped randomly. The compound of Example 4 (30 mg/kg) was administered twice a day for 21 consecutive days. During the treatment experiment in which the antibody was administered alone or in combination with the compound of Example 4, anti-mouse PD-1 (CD279) antibody (BioXcell) (5 mg/kg) was intraperitoneally injected (i.p.) to the mice bearing MC38 tumor fixedly on Day 5, 8, 11 and 14. The control group was administered with the vehicle CMC-Na drug formulation and the IgG2a isotype control antibody.
The tumor volume was measured with a caliper in three dimensions, and then calculated according to the following formula: tumor volume (mm^3)=l×w×h×0.5236, wherein 1 represents the length of the tumor, w represents the width of the tumor, and h represents the height of the tumor, in millimeters. Tumor growth inhibition rate TGI %=100×(TVcontrol−TVtumor)/(TVcontrol−TVinitial), wherein TVcontrol=the tumor volume of the control group; TVtumor=the tumor volume of the treatment group; and TVinitial=the initial tumor volume on Day 5.

Setting [5] is: 30 mg/kg in combination with anti-mouse PD-1 monoclonal antibody (5 mg/kg).

Data on five compounds can be found in US20200131123A1, “INDOLE-FORMAMIDE DERIVATIVE, PREPARATION METHOD THEREFOR AND USE THEREOF IN MEDICINE” (Jiangsu Hengrui Medicine Co., Ltd., priority 2017, published 2020).

As to `O=C(N[C@@H](CO)c1ccc(S(=O)(=O)CC2CC2)cc1)c1ccc2c(c1)cc(Cc1ccc(Cl)cc1C(F)(F)F)n2CCF` [Example 13, (R)-2-(4-Chloro-2-(trifluoromethyl)benzyl)-N-(1-(4-((cyclopropylmethyl)sulfonyl)phenyl)-2-hydroxyethyl)-1-(2-fluoroethyl)-1H-indole-5-carboxamide], in data set [1], the EC50 was determined as 69 nM, the Type result was “Agonist” and the Emax came out at 96%. In addition, in data set [2], the EC50 came to 27 nM and the Emax was 65%.

In the case of `CCS(=O)(=O)c1ccc([C@H](CO)NC(=O)c2ccc3c(c2)cc(Cc2ccc(Cl)cc2C(F)(F)F)n3C2CC2)cc1` [Example 11, (R)-2-(4-Chloro-2-(trifluoromethyl)benzyl)-1-cyclopropyl-N-(1-(4-(ethylsulfonyl)phenyl)-2-hydroxyethyl)-1H-indole-5-carboxamide], the EC50 in data set [1] worked out at 22 nM; in data set [2], 276 nM. Moreover, the Emax was found to be 94% in data set [1] and 72% in data set [2].

With `CCS(=O)(=O)c1ccc([C@H](CO)NC(=O)c2ccc3c(c2)cc(Cc2ccc(Cl)cc2C(F)(F)F)n3CCF)cc1` [Example 4, (R)-2-(4-Chloro-2-(trifluoromethyl)benzyl)-N-(1-(4-(ethylsulfonyl)phenyl)-2-hydroxyethyl)-1-(2-fluoroethyl)-1H-indole-5-carboxamide], in data set [2], the EC50 is 85 nM and the Emax is 93%. Besides, the Vd/F in data set [3] (read-out: Apparent distribution volume Vz/F) amounted to 0.637 L/kg. The area under the curve (AUC) (commonly the area under the concentration-time curve, a measure of exposure) in data set [3] (read-out: Area under curve AUC) is 50600 ng·h/mL. Also, the CL/F in data set [3] (read-out: Clearance CLz/F) stood at 0.66 mL/min/kg. Besides, in data set [3] (read-out: Half-life T1/2 (converted)), the half-life is 11.2 h. In addition, the Cmax in data set [3] (read-out: Plasma concentration Cmax) was 3660 ng/mL. Further, the MRT – broadly, a mean duration of stay, worked out from the concentration-time curve – in data set [3] (read-out: Residence time MRT) amounted to 15.5 h. Besides, the “TGI (tumor growth inhibition rate)” value in data set [4] (30 mg/kg administered alone, oral, twice a day for 21 days) was 40%. In data set [4] (setting [5]), the “Effect of combined administration with PD-1 antibody” value was “synergistic effect” and the “TGI (tumor growth inhibition rate)” value was 63%. The Antitumor activity entry in data set [4] (administered alone) is on record as “exhibits an antitumor activity”.

For the compound `O=C(N[C@@H](CO)c1ccc(S(=O)(=O)CC2CC2)cc1)c1ccc2c(c1)cc(Cc1ccc(F)cc1C(F)(F)F)n2CCF` [Example 14, (R)—N-(1-(4-((Cyclopropylmethyl)sulfonyl)phenyl)-2-hydroxyethyl)-2-(4-fluoro-2-(trifluoromethyl)benzyl)-1-(2-fluoroethyl)-1H-indole-5-carboxamide], in data set [1], the EC50 amounted to 138 nM, the Type entry is recorded as “Agonist” and the Emax stood at 99%. In data set [2], this compound returned an EC50 of 42 nM and an Emax of 99%.

As for `CCS(=O)(=O)c1ccc([C@H](COC)NC(=O)c2ccc3c(c2)cc(Cc2ccc(Cl)cc2C(F)(F)F)n3CCF)cc1` [Example 16, (R)-2-(4-Chloro-2-(trifluoromethyl)benzyl)-N-(1-(4-(ethylsulfonyl)phenyl)-2-methoxyethyl)-1-(2-fluoroethyl)-1H-indole-5-carboxamide], in data set [1], the EC50 was 18 nM, the Type entry is “Agonist” and the Emax is 97%. Moreover, in data set [2], the EC50 is 8 nM and the Emax came out at 99%.
